Measurements reported in patent publication US20260364186A1, “Chemical Conjugates, Compositions, and Methods of Preparation and Use Thereof” (Transfection Holdings Limited, priority 2022, published 2026).
“Also recorded” adds a separate entry of the source.

Experiments:
[1] = test system: NZM11 (BRAF V600E) melanoma cells; assay: FACS uptake of BODIPY FL conjugates, 200 nM, 5 min (Example 2); type: cell-based, human
Description: (§1) FIG. 2. Conjugate compounds coupled to BODIPY FL were tested for uptake using 200 nM each conjugate and 5 minute incubation with melanoma cell line NZM11 (BRAF V600E mutant metastatic melanoma), melanoma cell line NZM40 (NRAS Q16H mutant metastatic melanoma) and melanoma cell line NZM9 (BRAF and NRAS wildtype metastatic melanoma). Mean fluorescent intensities (MFI). 2,000 cells (NZM11), 1,000 cells (NZM40) and 500-1,000 cells (NZM9). Cells were sorted by FACS. Bars represent mean±SD. Results were from a single experiment done in triplicate.
Materials and methods: NZM11 is an adherent metastatic melanoma cell which was originally derived from a patient with a subcutaneous lesion on their mid back. This human metastatic melanoma is identified with code CBA-1398 from Cell Bank Australia. […] BRAF is a gene that makes a protein called B-Raf. The gene is involved in sending signals within cells that direct the cell's growth. Around 50% of melanomas bear activating BRAF mutations. In this family of mutations, V600E is the most common, which is a single mutation on codon 600. BRAF mutation is also most common in patients whose tumours arise on skin without chronic sun-induced damage. See Ascierto et al., 2012.
For screening, NZM11, NZM40 and NZM9 cells were suspended at […] dispensed into 96 well plates and left to settle for 48 hours. Then, 10 μL of 10 mM stock solutions in DMSO for the conjugates were diluted with HBSS to afford 400 nM solution. Next, 400 nM compounds and DMSO solutions were diluted 1:1 with MEMα media to afford 200 nM solutions. After 48 hours the media was removed from the 96 well plates and 200 μL of 200 nM conjugates solutions dispensed to each well (in triplicate) and incubated for 5 minutes at 37 °C. After 5 minutes, the media was removed and cells washed with PBS. […] The FACS results output were represented as the mean of the fluorescence intensities (in arbitrary units) measured for cells sorted in every sample.

[2] = test system: NZM9 (BRAF and NRAS wildtype) melanoma cells; assay: as above; type: cell-based, human
Description: as §1
NZM9 is an adherent cell line which was originally derived from a metastatic melanoma from a patient (from axillary lymph node, source: Cellosaurus database). These cancer cells are BRAF and NRAS wild type. NZM9 present a mutation on gene TP53, which is the most frequent in human cancers, on 179C/T. This gene encodes the synthesis of protein p53 which acts as a tumour suppressor. See Tran et al., 2021; Levine and Owen, 2009; Duffy and Crown, 2021.
For screening, NZM11, NZM40 and NZM9 cells were suspended at […] dispensed into 96 well plates and left to settle for 48 hours. Then, 10 μL of 10 mM stock solutions in DMSO for the conjugates were diluted with HBSS to afford 400 nM solution. Next, 400 nM compounds and DMSO solutions were diluted 1:1 with MEMα media to afford 200 nM solutions. After 48 hours the media was removed from the 96 well plates and 200 μL of 200 nM conjugates solutions dispensed to each well (in triplicate) and incubated for 5 minutes at 37 °C. After 5 minutes, the media was removed and cells washed with PBS. Then, 100 μL of TrypLE trypsin (ThermoFisher Scientific) were added to each well and incubated for 5 minutes at 37 °C after which, 100 μL of MEMα media were added and samples were sorted through FACS biosort. The FACS results output were represented as the mean of the fluorescence intensities (in arbitrary units) measured for cells sorted in every sample.

[3] = test system: NZM11 melanoma cancer cell line; assay: FACS uptake of BODIPY FL conjugates, 50 nM, 5 min (Example 1); type: cell-based, human
Description: (§2) FIG. 1. Conjugate compounds coupled to BODIPY FL were tested for uptake using 50 nM each conjugate and 5 minute incubation with HEM (human epidermal melanocytes) and melanoma cell line NZM11 (BRAF V600E mutant metastatic melanoma). Mean fluorescent intensities (MFI). For these tests, n=300-500, mean±SD. Results were from a single experiment done in triplicate. Cells were sorted by FACS.
(§3) Materials and methods: NZM11 is an adherent metastatic melanoma cell derived from a patient with a subcutaneous lesion on their mid back. This human metastatic melanoma is identified with code CBA-1398 from Cell bank Australia. […] Cells of NZM11 diluted in MEMα media and cells of HEMnDP (primary melanocyte cell line) diluted in media 254 were left to settle in 96-wells microplate for 48 hours. 10 μL of 10 mM stock solutions in DMSO from 138 and pantothenic acid/pantothenic acid derivatives coupled to BODIPY were diluted with HBSS to afford 100 nM solution. Then, 100 nM compounds and DMSO solutions were diluted 1:1 with MEMα media for NZM11 and media 254 for HEMnDP to afford 50 nM solutions. After the 48 hour settle time, media was removed from the cells and 200 μL of 50 nM media solutions were poured to each well and incubated for 5 minutes at 37 °C. […] The FACS results output represented the mean of the fluorescence intensities (in arbitrary units) measured for cells sorted in every sample

[4] = test system: HEM (human epidermal melanocytes); assay: as above; type: cell-based; conditions: HEM / normal melanocytes
Description: as §2, §3

[5] = test system: HT29 (colorectal cancer cell line); assay: FACS uptake of BODIPY FL conjugates (Example 4); type: cell-based, human; conditions: 200 nM, 5 min
Description: FIG. 4A: Conjugate compounds coupled to BODIPY FL were tested for uptake using 200 nM each conjugate and 5 minute incubation with colorectal cancer cell line HT29. Mean fluorescent intensities (MFI). 1,000 cells were sorted by FACS.
Materials and methods: The HT-29 line was originally isolated from a primary tumour in 1964 from a person. This cell line is positive for expression of N-ras and overexpression of p53 antigen. The human colon adenocarcinoma cell line HT29, is not only used to study the biology of human colon cancers, but it is receiving special interest in studies focused on food digestion and bioavailability due to the ability to express characteristics of mature intestinal cells. The application of this cell line to transport studies of drugs and food compounds is illustrated, especially when the effect of the mucus layer is considered or used as co-culture in combination with Caco-2 cells. These cells have shown a high rate of glucose consumption and therefore, they require high glucose concentration in the medium. Verhoeck et al., 2015.
For these experiments, HT-29 or MEF cells were diluted on αMEM media (supplemented with 10% FBS+1% penicillin-streptomycin) to give a 250 cells/μL suspension of which 200 μL were aliquoted into each well of a 96 well plate followed by incubation for 24 hours. Next, 2 μL of 100 μM stock solutions in DMSO from the conjugates coupled to BODIPY were diluted with 998 μL of αMEM media to give a 200 nM solution. After 24 hour incubation, media was removed and 200 μL of 138 and pantothenic acid/pantothenic acid derivatives coupled to BODIPY 200 nM solutions were added and cells were incubated for 5 minutes at 37 °C. After 5 minutes, the compounds and DMSO solutions were removed and cells were washed with PBS. Then, 100 μL of TrypLE trypsin were added to each well and incubated for 5 minutes at 37 °C. After this time, 100 μL of DMEM media were added to the wells and samples were sorted through FACS biosort. The studies were completed in duplicated wells.

In the case of `CC1=CC(C)=[N+]2C1=Cc1ccc(CCCn3cc(CCNC(=O)/C=C/NC(=O)[C@H](O)C(C)(C)CO)nn3)n1[B-]2(F)F` [Compound 124], the “higher fluorescence intensities compared to enantiomer 126” value [1] was 15 fold, the “uptake (fluorescence intensities)” value [1] was “highest intensities; also recorded: best targeting activity” and the “higher fluorescence intensities compared to enantiomer 126” value [2] was 7 times. For the same compound, the “uptake (fluorescence intensities)” value [2] was “highest intensities; also recorded: best targeting activity”, the “uptake (fluorescence intensities)” value [3] was “significant uptake; also recorded: highest intensities; also recorded: best targeting activity, with high uptake into cancer cells” and the “uptake (fluorescence intensities)” value [4] was “no significant uptake”.

For `CC1=CC(C)=[N+]2C1=Cc1ccc(CCCn3cc(CCNC(=O)/C=C/NC(=O)[C@@H]4OC(C)(C)OCC4(C)C)nn3)n1[B-]2(F)F` [Compound 125, (R,E)-N-((((3-[4,4-difluoro-5,7-dimethyl-4-bora-3a,4a-diaza-s-indacene-3-yl]propyl)-1H-1,2,3-triazol-4-yl)eth-ylamino)-3-oxoprop-1-enyl)-2,2,5,5-tetramethyl-1,3-dioxane-4-carboxamide], the “uptake (fluorescent intensities)” value [5] was “moderately higher fluorescent intensities”, the “uptake (fluorescence intensities)” value [1] was “selective uptake; also recorded: significant uptake” and the “uptake (fluorescence intensities)” value [2] was “selective uptake; also recorded: significant uptake”.

With `CC1=CC(C)=[N+]2C1=Cc1ccc(CCCn3cc(CCNC(=O)/C=C\NC(=O)[C@H]4OC(C)(C)OCC4(C)C)nn3)n1[B-]2(F)F` [Compound 131, (Z)—N-((((3-[4,4-Difluoro-5,7-dimethyl-4-bora-3a,4a-diaza-s-indacene-3-yl]propyl)-1H-1,2,3-triazol-4-yl)ethylamino)-3-oxoprop-1-enyl)-2,2,5,5-tetramethyl-1,3-dioxane-4-carboxamide] the “uptake (fluorescent intensities)” value [5] was “higher uptakes than their diol counterparts” and the “uptake (fluorescence intensities)” value [4] was “significant uptake”.
